Assay results as given in the supplement of paper PMC8882468.

What was measured:
Test in all cases: CTG-3D luminescence at 96 h relative to day-0 seeding control (ratio to day 0); higher = more growth / less cytotoxicity; PDxO 3D drug screen (set 2), 96 h, CTG-3D normalised to day-0 seeding control.
HCI-011.E2 = system: HCI-011.E2 (organoid from an ER-positive breast cancer xenograft)
HCI-027 = system: HCI-027 (organoid from a triple-negative breast cancer xenograft)
HCI-002 = system: HCI-002 (organoid from a triple-negative breast cancer xenograft)
HCI-024 = system: HCI-024 (organoid from a breast cancer xenograft)
HCI-016 = system: HCI-016 (organoid from a triple-negative breast cancer xenograft)
HCI-005.E2 = system: HCI-005.E2 (organoid from a breast cancer xenograft with a HER2-positive history)

CCOc1ccn(-c2ccc(F)cc2)c(=O)c1C(=O)Nc1ccc(Oc2ccnc(N)c2Cl)c(F)c1 [ASLAN002]
CTG-3D luminescence at 96 h
Details	12.5 pM	0.00025 µM	0.005 µM	0.1 µM	1 µM	10 µM	100 µM	625 fM
HCI-005.E2	1.72	2.16	2.37	2.74	2.59	2.35	1.45	2.25
HCI-011.E2	1.61	1.78	1.28	1.76	1.41	2.11	1.39	2.23

CTG-3D luminescence at 96 h
Details	12.5 pM	0.00025 µM	0.005 µM	0.1 µM	1 µM	10 µM	100 µM	625 fM
HCI-002, days in culture: 127	2.57	3.09	2.93	3.28	2.8	2.96	1.67	2.9
HCI-002, days in culture: 155	4.58	5.63	6.16	6.6	5.32	3.84	1.94	4.85
HCI-002, days in culture: 168	3.23	3.24	4.54	3.38	4.12	2.92	0.58	3.92
HCI-011.E2, days in culture: 74	2.83	2.42	2.58	2.8	2.58	2.52	1.66	2.28
HCI-016, days in culture: 305	1.62	3.6	3.65	4.35	2.71	1.97	2.68	3.43
HCI-016, days in culture: 327	0.8	1.78	1.32	1.46	1.87	1.58	1.05	1.72
HCI-016, days in culture: 341	1.97	1.78	2.09	2.6	1.97	2	0.676	2.26
HCI-016, days in culture: 397	1.73	2.37	1.99	2.59	2.39	2.98	0.779	2.52
HCI-024, days in culture: 202	1.14	1.03	1.19	1.27	0.701	1.41	0.658	1.61
HCI-024, days in culture: 231	0.919	1.2	1.13	1.05	1.25	1.02	0.471	1.06
HCI-024, days in culture: 254	2.48	0.889	0.968	1.46	1.85	1.96	1	2.45
HCI-027, days in culture: 145	1.36	2.38	1.99	2.27	1.53	1.16	0.692	1.71
HCI-027, days in culture: 158	2.07	1.82	2.16	2.7	1.65	2.11	1.35	4.78
HCI-027, days in culture: 164	1.59	1.98	3.29	1.48	1.84	1.29	0.787	1.91
HCI-027, days in culture: 176	3.7	2.85	1.77	1.65	2.11	1.09	0.699	2.39
HCI-027, days in culture: 186	2	1.38	1.53	2.45	0.755	0.892	0.737	2

C[C@@H](Nc1cc(F)cc(F)c1)c1cc(C(=O)N(C)C)cc2c(=O)cc(N3CCOCC3)oc12 [AZD-8186]
CTG-3D luminescence at 96 h
Details	12.5 pM	0.00025 µM	0.005 µM	0.1 µM	1 µM	10 µM	100 µM	625 fM
HCI-005.E2	1.82	2.18	2.26	2.54	2.24	1.51	0.592	1.97
HCI-011.E2	1.45	1.9	1.54	1.81	1.47	1.01	0.293	2.13

CTG-3D luminescence at 96 h
Details	12.5 pM	0.00025 µM	0.005 µM	0.1 µM	1 µM	10 µM	100 µM	625 fM
HCI-002, days in culture: 127	2.49	2.9	3.08	3.46	2.69	2.62	1.37	2.78
HCI-002, days in culture: 155	4.16	4.76	5.31	5.43	4.16	3.89	1.67	4.15
HCI-002, days in culture: 168	3.35	3.58	4.3	3.62	3.22	2.87	0.73	4.14
HCI-011.E2, days in culture: 74	2.16	1.88	1.79	2.21	1.49	1.12	0.136	2.4
HCI-016, days in culture: 305	3.52	4.53	2.53	4.16	1.53	1.97	1.51	4.97
HCI-016, days in culture: 327	1.3	1.35	1.53	2.67	0.902	1.31	0.672	1.61
HCI-016, days in culture: 341	2.01	1.59	2.07	1.7	1.81	2.04	0.88	2.55
HCI-016, days in culture: 397	2.34	2.9	1.49	1.76	2.14	1.87	0.71	2.46
HCI-024, days in culture: 202	1.88	0.916	0.693	1.33	0.84	1.61	0.461	1.39
HCI-024, days in culture: 231	1.33	1.25	1.21	1.01	1.32	0.93	0.399	1.35
HCI-024, days in culture: 254	1.17	1.68	1.81	2.04	0.901	1.55	0.743	1.01
HCI-027, days in culture: 145	1.31	2.65	1.81	1.94	0.882	1.12	0.387	1.74
HCI-027, days in culture: 158	0.987	2.74	2.32	1.39	1.24	1.87	0.581	4.36
HCI-027, days in culture: 164	1.52	0.955	2.29	2.94	1.28	1.36	0.618	1.46
HCI-027, days in culture: 176	2.9	2.55	1.1	1.9	1.15	0.842	0.201	1.89
HCI-027, days in culture: 186	1.9	2.1	2.54	1.7	0.519	1.46	0.286	2.6

Cc1c(CN2CCN(C(=O)[C@H](C)O)CC2)sc2c(N3CCOCC3)nc(-c3cnc(N)nc3)nc12 [apitolisib]
CTG-3D luminescence at 96 h
Details	12.5 pM	0.00025 µM	0.005 µM	0.1 µM	1 µM	10 µM	100 µM	625 fM
HCI-005.E2	1.87	2.22	2.35	1.75	0.429	0.481	0.444	2.21
HCI-011.E2	1.62	1.71	1.3004	0.978	0.232	0.17	0.377	1.89

CTG-3D luminescence at 96 h
Details	12.5 pM	0.00025 µM	0.005 µM	0.1 µM	1 µM	10 µM	100 µM	625 fM
HCI-002, days in culture: 127	2.45	2.82	2.96	2.58	1.05	0.803	0.805	2.74
HCI-002, days in culture: 155	5.36	5.25	5.97	4.01	1.36	0.808	0.848	4.72
HCI-002, days in culture: 168	3.42	3.42	4.23	2.67	1.16	0.818	0.75	3.69
HCI-011.E2, days in culture: 74	2.37	2.08	1.85	1.24	0.177	0.0892	0.218	2.23
HCI-016, days in culture: 305	2.28	2.68	3.05	3.53	0.981	0.764	0.885	4.57
HCI-016, days in culture: 327	1.06	1.19	1.2	1.18	0.573	0.82	0.546	1.62
HCI-016, days in culture: 341	2.23	1.71	1.7	1.65	0.831	0.768	0.618	2.56
HCI-016, days in culture: 397	1.26	1.89	1.41	1.48	0.778	0.916	0.378	1.87
HCI-024, days in culture: 202	1.67	1.17	1	1.17	0.494	1.03	0.293	1.42
HCI-024, days in culture: 231	1.04	1.28	1.23	1.04	0.577	0.527	0.227	1.38
HCI-024, days in culture: 254	1.36	0.995	0.856	2.4	0.795	0.608	0.25	1.94
HCI-027, days in culture: 145	1.36	2	1.85	1.14	0.404	0.297	0.262	1.64
HCI-027, days in culture: 158	2.21	2.37	2.99	2.07	0.609	1.12	0.342	6.72
HCI-027, days in culture: 164	1.35	2.18	2.6	1.92	0.894	0.441	0.389	1.48
HCI-027, days in culture: 176	3.68	2.63	1.06	1.66	0.9	0.431	0.271	1.29
HCI-027, days in culture: 186	1.37	1.93	1.13	0.973	0.319	0.706	0.112	2.34
